This passage reports TGI and GI50 results from PubChem BioAssay (NCI).

SMILES strings stand for the structures.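 48-hour exposure; five concentrations; linearly interpolated endpoints. GI50 marks 50% less growth. Definition used: TGI = concentration required for complete inhibition of growth.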 Where only a bound is given, the exact number is not on record here.

Among the test systems are NCI/ADR-RES ovarian; OVCAR-8 ovarian; RXF 393 renal; SK-MEL-5 melanoma; PC-3 prostate; SF-268 CNS; SR leukemia; NCI-H460 lung; CCRF-CEM leukemia; HOP-92 NSCLC.
What all share (experiment): NCI tumour cell line growth inhibition, 48 h

`C=CCCC1(CCP(=O)(c2ccccc2)c2ccccc2)OCCO1`: the TGI in the assay with NCI/ADR-RES ovarian, in the assay with OVCAR-8 ovarian, in the assay with RXF 393 renal, in the assay on SK-MEL-5 melanoma, in the assay with PC-3 prostate and with SF-268 CNS was over 100 µM each time. The TGI with SR leukemia, in the assay on NCI-H460 lung and with CCRF-CEM leukemia was over 100 µM each time.

With `Clc1ccc(N=CNc2ccc(-c3nc4ccccc4[nH]3)cc2)cc1`, the GI50 is 64.1 µM with OVCAR-8 ovarian; over 100 µM in the assay with RXF 393 renal; 39.9 µM in the assay with SK-MEL-5 melanoma; over 100 µM with PC-3 prostate; 19.6 µM in the assay with SF-268 CNS; 39.6 µM in the assay with SR leukemia. Further, the results for the GI50 in the assay with NCI-H460 lung and with HOP-92 NSCLC were 17.7 µM and 59.1 µM, respectively. The TGI in the assay on OVCAR-8 ovarian, with RXF 393 renal, in the assay with SK-MEL-5 melanoma, in the assay with PC-3 prostate, in the assay on SF-268 CNS and with SR leukemia was over 100 µM each time. Moreover, the TGI in the assay on NCI-H460 lung and in the assay on HOP-92 NSCLC was over 100 µM throughout.

Turning to `COc1cc([C@H]2c3cc(O)c(OC)cc3C[C@]3(O)[C@@H]2CO[C@@H]3O)ccc1O`, the TGI in the assay with NCI/ADR-RES ovarian, in the assay with OVCAR-8 ovarian, in the assay with SK-MEL-5 melanoma, with PC-3 prostate, with SF-268 CNS and in the assay with SR leukemia was over 100 µM throughout. The TGI in the assay on NCI-H460 lung, in the assay with HOP-92 NSCLC and with CCRF-CEM leukemia was over 100 µM throughout.

Regarding `CC(=O)OCc1cc2c(s1)C(=O)c1sccc1C2=O`, the TGI in the assay with NCI/ADR-RES ovarian stood at 0.413 µM; in the assay with OVCAR-8 ovarian, 0.576 µM; with RXF 393 renal it was 0.31 µM; in the assay with SK-MEL-5 melanoma, 0.0569 µM; in the assay on PC-3 prostate, 0.563 µM; in the assay on SF-268 CNS, 0.417 µM. The TGI turned out to be 0.322 µM in the assay with NCI-H460 lung and 1.68 µM in the assay with HOP-92 NSCLC.

As to `CC(C)c1nc(Cl)c(Cl)c(Cl)n1`, the TGI with NCI/ADR-RES ovarian is 55.8 µM; in the assay with OVCAR-8 ovarian, 8.07 µM; in the assay with RXF 393 renal it was 7.97 µM; in the assay on SK-MEL-5 melanoma, 30.9 µM; with PC-3 prostate, 17.7 µM; in the assay with SF-268 CNS, 9.29 µM. The figures for the TGI with NCI-H460 lung, in the assay with HOP-92 NSCLC and in the assay with CCRF-CEM leukemia were 48.4 µM, 14.2 µM and 9.33 µM, respectively.

`Cc1cc(C2(c3cc(C)c(O)c4ncccc34)OC(=O)c3ccccc32)c2cccnc2c1O`: the GI50 with NCI/ADR-RES ovarian was 0.0138 µM; in the assay on PC-3 prostate, 0.0957 µM. Further, the TGI is 17.1 µM in the assay with NCI/ADR-RES ovarian; over 100 µM in the assay with OVCAR-8 ovarian; over 100 µM in the assay on RXF 393 renal; 0.0574 µM with SK-MEL-5 melanoma; over 100 µM in the assay with PC-3 prostate; 0.203 µM in the assay with NCI-H460 lung. This compound displayed a TGI with CCRF-CEM leukemia of over 100 µM.

Regarding `CN(C)C(=O)c1cc2cnc(Nc3ccc(N4CCNCC4)cn3)nc2n1C1CCCC1`, the GI50 with NCI/ADR-RES ovarian is 37.8 µM; in the assay with OVCAR-8 ovarian it was 23.7 µM; in the assay with SK-MEL-5 melanoma, 11.6 µM; in the assay with PC-3 prostate, 1.01 µM; with SF-268 CNS it was 14.1 µM; with SR leukemia, 3.21 µM. The values for the GI50 in the assay on NCI-H460 lung, in the assay on HOP-92 NSCLC and with CCRF-CEM leukemia were 11.3 µM, 0.867 µM and 2.92 µM, respectively. Further, the TGI in the assay with NCI/ADR-RES ovarian was over 100 µM; in the assay with OVCAR-8 ovarian, 89.7 µM; with SK-MEL-5 melanoma, 24.5 µM; with PC-3 prostate, 62.9 µM; in the assay on SF-268 CNS it was 38.3 µM; with SR leukemia it was 38.7 µM. The TGI was 43.8 µM in the assay with NCI-H460 lung, 61.6 µM in the assay on HOP-92 NSCLC and over 100 µM in the assay with CCRF-CEM leukemia.

Take `N#Cc1c(N)nc(N2CCOCC2)c(C#N)c1-c1ccc(Cl)cc1Cl`: the GI50 in the assay with NCI/ADR-RES ovarian was 19.9 µM; in the assay with OVCAR-8 ovarian it was 18.2 µM; in the assay with RXF 393 renal, 5.67 µM; in the assay on SK-MEL-5 melanoma, 14.7 µM; in the assay with PC-3 prostate, 10.9 µM; in the assay on SF-268 CNS, 14.2 µM. Further, the results for the GI50 in the assay with NCI-H460 lung, in the assay on HOP-92 NSCLC and with CCRF-CEM leukemia were 9.38 µM, 3.35 µM and 23.2 µM, respectively. In addition, the TGI came to 48.1 µM in the assay on NCI/ADR-RES ovarian; 54.5 µM in the assay with OVCAR-8 ovarian; 38.4 µM in the assay with RXF 393 renal; 29.2 µM with SK-MEL-5 melanoma; 35.2 µM in the assay with PC-3 prostate; 35.6 µM in the assay with SF-268 CNS. The values for the TGI in the assay with NCI-H460 lung, with HOP-92 NSCLC and in the assay with CCRF-CEM leukemia were 25.3 µM, 26.3 µM and 75 µM, respectively.

On to `COc1ccc(-c2ccc(/C=N/n3c(COc4ccc(Cl)c(C)c4)nn(CN4CCOCC4)c3=S)o2)c([N+](=O)[O-])c1`, for which the GI50 with NCI/ADR-RES ovarian is 27.6 µM; in the assay with OVCAR-8 ovarian, 33.5 µM; in the assay with RXF 393 renal, 19.1 µM; in the assay with PC-3 prostate, 17.7 µM; in the assay with SF-268 CNS, 33.8 µM; with SR leukemia, 26.3 µM. Besides, the GI50 is 18.5 µM in the assay on NCI-H460 lung and 19.3 µM in the assay with CCRF-CEM leukemia. Further, the TGI was over 100 µM in the assay with NCI/ADR-RES ovarian; over 100 µM with OVCAR-8 ovarian; 52.7 µM in the assay on RXF 393 renal; 51.1 µM in the assay with PC-3 prostate; over 100 µM with SF-268 CNS; 72.1 µM in the assay with SR leukemia. For the same compound, the TGI in the assay on NCI-H460 lung was 55.8 µM; with CCRF-CEM leukemia, 56.2 µM.

For the compound `COc1ccc(Cl)cc1Nc1nc(C(F)(F)F)ccc1C(=O)N/N=C/c1ccc(Cl)cc1`, the GI50 in the assay with NCI/ADR-RES ovarian is 6.35 µM; in the assay with OVCAR-8 ovarian it was 5.1 µM; in the assay with RXF 393 renal, 4.56 µM; with SK-MEL-5 melanoma, 2.23 µM; with PC-3 prostate it was over 100 µM; with SF-268 CNS, 1.96 µM. The GI50 is 1.82 µM with NCI-H460 lung, 11.4 µM in the assay with HOP-92 NSCLC and 0.594 µM in the assay on CCRF-CEM leukemia. Further, the TGI with NCI/ADR-RES ovarian is over 100 µM; in the assay on OVCAR-8 ovarian, over 100 µM; in the assay on RXF 393 renal, 53.2 µM; with SK-MEL-5 melanoma, 23.5 µM; in the assay on PC-3 prostate, over 100 µM; in the assay with SF-268 CNS, 27.9 µM. The TGI with NCI-H460 lung is over 100 µM; in the assay with HOP-92 NSCLC, 67.2 µM; in the assay with CCRF-CEM leukemia, 10.3 µM.

`O=NNc1nc(-c2ccccn2)nc2ccccc12`: the TGI was 63.5 µM with NCI/ADR-RES ovarian; over 100 µM in the assay with OVCAR-8 ovarian; over 100 µM in the assay on SK-MEL-5 melanoma; over 100 µM in the assay with PC-3 prostate; over 100 µM in the assay on SF-268 CNS; over 100 µM in the assay with SR leukemia. Moreover, the TGI is over 100 µM in the assay on NCI-H460 lung and 15.4 µM in the assay on CCRF-CEM leukemia.

`COc1cccc2c(Nc3ccc(C(=O)NCCN4CCNCC4)cc3)cc(-c3ccccc3)nc12`: the GI50 with NCI/ADR-RES ovarian was over 100 µM; in the assay on OVCAR-8 ovarian it was 39.2 µM; in the assay on RXF 393 renal, over 100 µM; in the assay on SK-MEL-5 melanoma, 31 µM; in the assay on PC-3 prostate it was 25.8 µM; in the assay with SF-268 CNS it was 50.1 µM. The GI50 was 35.1 µM with NCI-H460 lung, 95 µM in the assay with HOP-92 NSCLC and 30.1 µM in the assay on CCRF-CEM leukemia. Besides, the TGI in the assay on NCI/ADR-RES ovarian, in the assay with OVCAR-8 ovarian, with RXF 393 renal, in the assay with SK-MEL-5 melanoma, in the assay on PC-3 prostate and in the assay with SF-268 CNS was over 100 µM throughout. For the same compound, the TGI with NCI-H460 lung was over 100 µM; with HOP-92 NSCLC, over 100 µM; in the assay with CCRF-CEM leukemia it was 91.7 µM.

On to `O=C(Nc1cccc(C(F)(F)F)c1)Nc1ccc(OCc2nnc(-c3ccccc3)o2)c(F)c1`, for which the GI50 in the assay with NCI/ADR-RES ovarian is 4.61 µM; in the assay with OVCAR-8 ovarian, 5.19 µM; in the assay on SK-MEL-5 melanoma it was 5.71 µM; in the assay with PC-3 prostate, 2.01 µM; in the assay with SF-268 CNS, 12.3 µM; with SR leukemia, 2.23 µM. In addition, the results for the GI50 in the assay with NCI-H460 lung, in the assay with HOP-92 NSCLC and in the assay on CCRF-CEM leukemia were 3.61 µM, 1.77 µM and 3.29 µM, respectively. Also, the TGI is 26.9 µM in the assay on NCI/ADR-RES ovarian; 32.1 µM with OVCAR-8 ovarian; 21.3 µM with SK-MEL-5 melanoma; 13.7 µM in the assay on PC-3 prostate; 78.2 µM with SF-268 CNS; 9.65 µM in the assay with SR leukemia. The TGI in the assay with NCI-H460 lung came out at 15.3 µM; with HOP-92 NSCLC, 5.81 µM; in the assay on CCRF-CEM leukemia it was 54.9 µM.

For `COC(=O)c1ccccc1NCc1cc(O)ccc1O`, the TGI is 62.5 µM in the assay with NCI/ADR-RES ovarian; 34.5 µM in the assay on OVCAR-8 ovarian; 30.3 µM in the assay with RXF 393 renal; 38.9 µM in the assay with SK-MEL-5 melanoma; 33.6 µM in the assay on PC-3 prostate; over 77.4 µM in the assay with SF-268 CNS. Also, the values for the TGI in the assay on NCI-H460 lung, with HOP-92 NSCLC and in the assay with CCRF-CEM leukemia were over 31.6 µM, 35.3 µM and over 46.3 µM, respectively.

For the compound `Cc1cccc2c1Oc1ncccc1C2NC(=O)CN(C)C` (centres undefined), the TGI with NCI/ADR-RES ovarian, in the assay on OVCAR-8 ovarian, in the assay on PC-3 prostate, in the assay with SF-268 CNS, in the assay with SR leukemia and in the assay with NCI-H460 lung was over 10 µM each time. The TGI with HOP-92 NSCLC and in the assay with CCRF-CEM leukemia was over 10 µM each time.

Consider `COc1cc2c(cc1OCCCN1CCN(CCCn3c4ccccc4c4ccccc43)CC1)N=C[C@@H]1CCCN1C2=O`, for which the GI50 in the assay on NCI/ADR-RES ovarian is 1.37 µM; in the assay with OVCAR-8 ovarian, 0.273 µM; in the assay with SK-MEL-5 melanoma, 0.202 µM; in the assay with PC-3 prostate, 0.0585 µM; in the assay with SF-268 CNS it was 0.0362 µM; in the assay with SR leukemia, 0.0206 µM. For the same compound, the GI50 with NCI-H460 lung was 0.23 µM; with HOP-92 NSCLC, 0.0283 µM; in the assay with CCRF-CEM leukemia it was 0.0218 µM. Further, the TGI in the assay with NCI/ADR-RES ovarian worked out at 4.93 µM; in the assay with OVCAR-8 ovarian, 1.55 µM; in the assay on SK-MEL-5 melanoma it was 0.472 µM; with PC-3 prostate, 0.523 µM; with SF-268 CNS it was 0.289 µM; with SR leukemia, 12.4 µM. For the same compound, the TGI in the assay with NCI-H460 lung turned out to be 0.916 µM; in the assay on HOP-92 NSCLC it was 0.173 µM; with CCRF-CEM leukemia, 0.118 µM.
